Active and inactive are the calls of the source. No cut-off for these calls is given here.
Assays:
[1] = target: T1, Pyridoxal kinase (Homo sapiens) (UniProt O00764); test: Binding affinity to HEK293T cells-derived His-tagged PDXK expressed in Escherichia coli BL21(DE3) assessed as stoichiometric complex formation at 10 uM after 5 mins by electrospray ionization native mass spectrometry; conditions: HEK-293T
T1 sequence (whole entry): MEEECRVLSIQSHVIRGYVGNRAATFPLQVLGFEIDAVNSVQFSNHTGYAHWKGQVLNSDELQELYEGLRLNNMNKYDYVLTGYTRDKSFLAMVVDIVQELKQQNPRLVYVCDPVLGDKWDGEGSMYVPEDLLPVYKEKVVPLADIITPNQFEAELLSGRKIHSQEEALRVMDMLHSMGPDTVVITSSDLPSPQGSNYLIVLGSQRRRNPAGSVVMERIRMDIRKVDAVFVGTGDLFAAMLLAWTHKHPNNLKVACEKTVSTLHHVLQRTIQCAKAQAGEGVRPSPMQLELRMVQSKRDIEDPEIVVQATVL

[2] = target: T2, Acyl-protein thioesterase 2 (Homo sapiens, UniProt O95372); test: Binding affinity to HEK293T cells-derived His-tagged APT2 expressed in Escherichia coli BL21(DE3) assessed as stoichiometric complex formation at 10 uM after 5 mins by electrospray ionization native mass spectrometry; conditions: HEK-293T
[3] = target: T3, Ribosyldihydronicotinamide dehydrogenase [quinone] (Homo sapiens) (UniProt P16083); test: Binding affinity to HEK293T cells-derived His-tagged NQO2 expressed in Escherichia coli BL21(DE3) assessed as stoichiometric complex formation at 10 uM after 5 mins by electrospray ionization native mass spectrometry; conditions: HEK-293T
T3 sequence (whole entry): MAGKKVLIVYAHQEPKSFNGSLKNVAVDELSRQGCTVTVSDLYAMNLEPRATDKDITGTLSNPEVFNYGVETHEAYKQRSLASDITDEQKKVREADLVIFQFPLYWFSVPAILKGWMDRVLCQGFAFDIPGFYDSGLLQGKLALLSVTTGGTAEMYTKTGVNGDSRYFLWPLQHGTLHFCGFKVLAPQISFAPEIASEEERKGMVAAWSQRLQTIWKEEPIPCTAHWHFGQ

Pyridoxal kinase = target: T4, Pyridoxal kinase (Homo sapiens, UniProt O00764); test: Inhibition of fluorescein-labeled ML349 binding to HEK293T cells-derived His-tagged PDXK expressed in Escherichia coli BL21(DE3) after 30 mins by fluorescence polarization assay; set-up: species or system HEK-293T
T4 sequence (O00764 whole entry): T1 sequence (whole entry)

[4] = target: T2, Acyl-protein thioesterase 2; test: Competitive inhibition of HEK293T cells-derived His-tagged APT2 expressed in Escherichia coli BL21(DE3) preincubated for 30 mins followed by substrate addition by resorufin dye based acetate hydrolysis assay; set-up: species or system HEK-293T
[5] = target: T2, Acyl-protein thioesterase 2; test: Binding affinity to APT2 in HEK293T cells at 50 uM incubated for 1 hr by mass spectrometry analysis relative to o-ML349-biotin; type: cell-based; conditions: HEK-293T
[6] = target: Deoxycytidine kinase (Homo sapiens) (UniProt P27707); test: Binding affinity to DCK in HEK293T cells at 50 uM incubated for 1 hr by mass spectrometry analysis relative to o-ML349-biotin; type: cell-based; conditions: HEK-293T
[7] = target: T1, Pyridoxal kinase (Homo sapiens); test: Binding affinity to PDXK in HEK293T cells at 50 uM incubated for 1 hr by mass spectrometry analysis relative to o-ML349-biotin; type: cell-based; conditions: HEK-293T
[8] = target: T3, Ribosyldihydronicotinamide dehydrogenase [quinone] (Homo sapiens); test: Binding affinity to NQO2 in HEK293T cells at 50 uM incubated for 1 hr by mass spectrometry analysis relative to azide-PEG3-biotin; type: cell-based; conditions: HEK-293T
MDCK = test: Binding affinity to APT2 in MDCK cells at 50 uM incubated for 1 hr by mass spectrometry analysis; type: cell-based; conditions: Canis lupus familiaris
[9] = target: T1, Pyridoxal kinase (Homo sapiens); test: Binding affinity to PDXK in HEK293T cells at 50 uM incubated for 1 hr by mass spectrometry analysis relative to azide-PEG3-biotin; type: cell-based; conditions: HEK-293T
[10] = target: FAD synthase (Homo sapiens) (UniProt Q8NFF5); test: Binding affinity to FAD1 in HEK293T cells at 50 uM incubated for 1 hr by mass spectrometry analysis relative to o-ML349-biotin; type: cell-based; conditions: HEK-293T
[11] = target: T2, Acyl-protein thioesterase 2; test: Binding affinity to APT2 in HEK293T cells at 50 uM incubated for 1 hr by mass spectrometry analysis relative to azide-PEG3-biotin; type: cell-based; conditions: HEK-293T
[12] = target: Adenosine kinase (Homo sapiens) (UniProt P55263); test: Binding affinity to ADK in HEK293T cells at 50 uM incubated for 1 hr by mass spectrometry analysis relative to azide-PEG3-biotin; type: cell-based; conditions: HEK-293T
[13] = target: T3, Ribosyldihydronicotinamide dehydrogenase [quinone] (Homo sapiens); test: Binding affinity to NQO2 in HEK293T cells at 50 uM incubated for 1 hr by mass spectrometry analysis relative to o-ML349-biotin; type: cell-based; conditions: HEK-293T
[14] = target: T2, Acyl-protein thioesterase 2; test: Inhibition of fluorescein-labeled ML349 binding to HEK293T cells-derived His-tagged APT2 expressed in Escherichia coli BL21(DE3) after 30 mins by fluorescence polarization assay; set-up: species or system HEK-293T
[15] = target: Deoxycytidine kinase (Homo sapiens) (UniProt P27707); test: Binding affinity to DCK in HEK293T cells at 50 uM incubated for 1 hr by mass spectrometry analysis relative to azide-PEG3-biotin; type: cell-based; conditions: HEK-293T
[16] = target: Adenosine kinase (Homo sapiens) (UniProt P55263); test: Binding affinity to ADK in HEK293T cells at 50 uM incubated for 1 hr by mass spectrometry analysis relative to o-ML349-biotin; type: cell-based; conditions: HEK-293T
[17] = target: FAD synthase (Homo sapiens) (UniProt Q8NFF5); test: Binding affinity to FAD1 in HEK293T cells at 50 uM incubated for 1 hr by mass spectrometry analysis relative to azide-PEG3-biotin; type: cell-based; conditions: HEK-293T
[18] = target: T2, Acyl-protein thioesterase 2; test: Binding affinity to APT2 in HEK293T cells at 50 uM preincubated for 1 hr followed by FP-TAMRA labeling by in-gel fluorescence assay; type: cell-based; conditions: HEK-293T

T2 sequence (O95372 whole entry): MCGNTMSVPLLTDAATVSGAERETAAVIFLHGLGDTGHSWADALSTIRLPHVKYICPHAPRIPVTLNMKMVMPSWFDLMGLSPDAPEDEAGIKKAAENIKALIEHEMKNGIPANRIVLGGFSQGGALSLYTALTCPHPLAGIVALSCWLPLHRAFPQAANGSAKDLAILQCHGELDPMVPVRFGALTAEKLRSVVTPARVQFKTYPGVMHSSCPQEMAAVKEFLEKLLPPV
FAD synthase (Homo sapiens), sequence (Q8NFF5 whole entry): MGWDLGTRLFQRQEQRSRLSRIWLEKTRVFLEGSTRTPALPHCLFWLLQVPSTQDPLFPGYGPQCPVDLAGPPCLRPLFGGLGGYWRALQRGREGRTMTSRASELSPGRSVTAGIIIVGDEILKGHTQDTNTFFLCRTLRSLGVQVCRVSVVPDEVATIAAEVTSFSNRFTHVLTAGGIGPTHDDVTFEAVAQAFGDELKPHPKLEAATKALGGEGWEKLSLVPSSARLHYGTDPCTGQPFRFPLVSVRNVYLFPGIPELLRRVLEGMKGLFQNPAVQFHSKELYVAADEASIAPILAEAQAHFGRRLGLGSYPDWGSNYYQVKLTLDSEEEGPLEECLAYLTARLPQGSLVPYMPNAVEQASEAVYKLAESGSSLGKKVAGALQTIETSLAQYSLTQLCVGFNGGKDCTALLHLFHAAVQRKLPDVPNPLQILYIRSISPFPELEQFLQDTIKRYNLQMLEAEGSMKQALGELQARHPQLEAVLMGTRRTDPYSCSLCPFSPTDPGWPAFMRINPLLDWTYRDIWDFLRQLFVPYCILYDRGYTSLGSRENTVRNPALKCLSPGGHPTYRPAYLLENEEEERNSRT
Deoxycytidine kinase (Homo sapiens), sequence (P27707 whole entry, looked up): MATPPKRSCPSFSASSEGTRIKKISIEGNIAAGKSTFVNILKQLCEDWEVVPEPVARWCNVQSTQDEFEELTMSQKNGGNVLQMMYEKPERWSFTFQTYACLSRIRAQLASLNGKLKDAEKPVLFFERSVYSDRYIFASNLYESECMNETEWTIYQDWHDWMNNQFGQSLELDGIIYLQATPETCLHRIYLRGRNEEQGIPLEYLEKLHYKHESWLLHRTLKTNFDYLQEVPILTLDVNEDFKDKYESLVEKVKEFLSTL
Adenosine kinase (Homo sapiens), sequence (P55263 2-362 limits assumed): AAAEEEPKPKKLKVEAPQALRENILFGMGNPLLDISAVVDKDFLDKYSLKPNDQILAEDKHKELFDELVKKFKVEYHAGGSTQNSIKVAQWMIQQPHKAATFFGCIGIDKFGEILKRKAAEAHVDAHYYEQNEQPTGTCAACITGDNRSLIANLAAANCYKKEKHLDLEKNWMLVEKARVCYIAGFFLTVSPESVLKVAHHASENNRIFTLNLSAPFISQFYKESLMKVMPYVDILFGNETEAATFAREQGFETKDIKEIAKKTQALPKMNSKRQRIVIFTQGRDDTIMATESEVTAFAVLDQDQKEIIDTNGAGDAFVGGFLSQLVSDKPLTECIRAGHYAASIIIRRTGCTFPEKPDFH

| Activity [1] | Activity [2] | Activity [3] | IC50 (Pyridoxal kinase) | Ki [4] | fold change (FC) [5] | fold change (FC) [6] | fold change (FC) [7] | fold change (FC) [8] | fold change (FC) [9] | fold change (FC) [10] | fold change (FC) [11] | fold change (FC) [12] | fold change (FC) [13] | IC50 [14] | fold change (FC) [15] | fold change (FC) [16] | fold change (FC) [17] | Activity [18] | Structure (SMILES) | Activity (MDCK) |
| --- | --- | --- | --- | --- | --- | --- | --- | --- | --- | --- | --- | --- | --- | --- | --- | --- | --- | --- | --- | --- |
| Active | Active | Active | > 10 µM | – | – | – | – | – | – | – | – | – | – | – | – | – | – | – | COc1ccc(N2CCN(C(=O)c3cc4c(s3)-c3ccccc3S(=O)(=O)C4)CC2)cc1 | – |
| – | – | – | – | > 10 µM | – | – | – | – | – | – | – | – | – | – | – | – | – | – | [N-]=[N+]=NCCOCCOCCOCCNC(=O)CCCC[C@@H]1SC[C@@H]2NC(=O)N[C@@H]21 | – |
| Active | Active | Active | > 10 µM | 1.1 µM | > 5 | > 5 | > 5 | > 5 | > 5 | > 5 | > 5 | > 5 | > 5 | > 10 µM | > 5 | > 5 | > 5 | Active | O=C(CCCC[C@@H]1SC[C@@H]2NC(=O)N[C@@H]21)NCCOCCOCCOCCn1cc(COc2ccc(N3CCN(C(=O)c4cc5c(s4)-c4ccccc4S(=O)(=O)C5)CC3)cc2)nn1 | Active |
| – | – | – | – | > 10 µM | – | – | – | 3 | – | – | – | – | – | – | – | – | 3 | – | O=C(CCCC[C@@H]1SC[C@@H]2NC(=O)N[C@@H]21)NCCOCCOCCOCCn1cc(COc2ccccc2N2CCN(C(=O)c3cc4c(s3)-c3ccccc3S(=O)(=O)C4)CC2)nn1 | – |

From ChEMBL document CHEMBL3877331, “Affinity-Based Selectivity Profiling of an In-Class Selective Competitive Inhibitor of Acyl Protein Thioesterase 2” (ACS Med Chem Lett, 2017)
